The source of these data is patent US20260306640A1, “TECHNOLOGIES TARGETING CELL STATES” (Auron Therapeutics, Inc., priority 2023, published 2026).

One test concerns epithelial GSEA. The test is described as follows: Epithelial GSEA in LASCPC-01 cells. It counts as cell-based. The settings on record: LASCPC-01 cells as compared to DMSO; FIG. 3 (C). On the procedure: (§1) FIG. 3. Provided compounds can provide various activities. (A): Provided technologies can reduce KAT2A and KAT2B levels and histone acetylation levels. […] Cell viability (Cell Titer Glo) data relative to DMSO control after 7 days of treatment with compound 22 are presented as examples to confirm inhibition. GI50=5 nM. (C): Provided technologies can modulate cell states and induce differentiation. […] (D): Provided technologies can reduce KAT2A and KAT2B levels and histone acetylation levels including in neuroendocrine prostate cancer primary patient organoid. […] Concentrations are nM. […] Cell viability data relative to DMSO control after 21 days of treatment with compound 22 are presented as examples to confirm inhibition. GI50=3 nM. (F): Provided technologies can modulate cell states and induce differentiation.

Test [1] has as its system histone acetylation (e.g., AcH3K9). The test is described as follows: Histone H3K9 acetylation (AcH3K9), Western Blot, MOLM-13 cells. The settings on record: FIG. 2. It counts as cell-based. On the procedure: In some embodiments, an assessment is performed using cells. In some embodiments, cells were treated with various compounds before assessing KAT2A and/or KAT2B levels, histone (e.g., H3K9) acetylation levels, cell states, growth, etc.
Western Blot: In some assessments, MOLM13, NCI-H1048, LASCPC-01 and NEPC organoid cells were treated with compounds at certain concentrations for certain periods of time, and cell pellets were lysed by adding 1-part 4×laemmli Sample buffer (e.g., Bio-Rad Catalog #1610747) along with Mercaptoethanol (e.g., Bio-Rad Catalog #1610710) according to manufacturer's instructions, and 1-part RIPA buffer with 2×protease and phosphatase inhibitor. The samples were sonicated 30% amplitude, 35 seconds on and 35 seconds off for 1 cycle and boiled at 95° C. for 5 minutes. 30-35 μL of samples were loaded on a 4-15% Criterion™ TGX Stain-Free™ Protein Gel (Bio-rad, 5678084). In some assessments, NCI-H1048 flash frozen tumor pieces were resuspended in RIPA buffer and homogenized on TissueLyser II with steel beads at 30 Hz for 3 minutes. Samples were then centrifuged at […] at 4° C. for 15 minutes. BCA protein determination was performed and samples normalized for 1.95 ug/uL. 19.5 uL were loaded and run on similar gels as cell pellets. […]
For orientation: Immunoblotting shows a protein as a band on a membrane.

The next test has as its target KAT2A (Homo sapiens, UniProt Q92830). Kind of test: Western blot of KAT2A in NCI-H1048 tumors, 168 hours post last dose. Type of test: in vivo. The settings on record: FIG. 1 (F). On the set-up: degrader, Western blot. On the procedure:
FIG. 1. Provided compounds can provide various activities including inhibiting tumor growth in vivo. (A): Provided compounds can inhibit tumor growth in vivo. Nude Balb/c mice were inoculated with NCI-H1048 cells in Matrigel. Tumors were allowed to grow up to about 200 mm^3 and mice were then randomized into two groups. Mice were dosed intraperitoneally (i.p.) once per week with vehicle or 30 mg/kg compound 22. Tumor size was measured every three to four days and mice were sacrificed once vehicle tumors reached 2000 mm^3. Error bar is SEM. Dosing started at day 17 post tumor inoculation. (B): Provided technologies can reduce KAT2A and KAT2B levels and histone acetylation levels. […] Vehicle is DMSO. […] Cell count data relative to DMSO control after 8 days of treatment with compound 22 are presented as examples to confirm inhibition. GI50=6 nM. (D): Provided technologies can inhibit tumor growth in vivo. Nude balb/c mice inoculated with H1048 tumors were dosed intraperitoneally once per week (qw i.p.) with vehicle (HbCD) or compound 22. Average tumor volumes+/−SEM from 6 mice are represented. […] See also (A). […] Certain body weights relative to starting weight are presented as examples to confirm tolerability and safety. (F): Provided technologies can reduce KAT2A and KAT2B levels and histone acetylation levels in tumor in vivo. […]

For test [2], the target named is T1, KAT2B (Homo sapiens, UniProt Q92831). Kind of test: Western blot of KAT2B level in NEPC primary patient organoid, 72 hours. It counts as cell-based. On the set-up: degrader, Western blot. The settings on record: FIG. 3 (D). On the procedure: as §1
For test [3], the target named is T1, KAT2B. Kind of test: KAT2B degradation, Western Blot, MOLM-13 cells. It counts as cell-based. Further details: degrader, Western blot. On the procedure:
MOLM-13 cells were maintained at 37° C. in 5% CO2 and 90% humidity in RPMI 1640 supplemented with 20% fetal bovine serum (FBS) and 1× penicillin/streptomycin. Cells were plated in full media at 1-2 million cells/2 mL in a 6-well tissue culture treated plate with or without compounds for 24 h at 37° C. in 5% CO2.
MOLM-13 cells or NCI-H1048 cells were washed with PBS, then lysed with RIPA buffer containing 1×protease and phosphatase inhibitors (SantaCruz Biotechnologies Cat #sc-24948A). Protein was isolated by centrifugation at 12,000×g for 10 minutes at 4° C. and supernatant was collected. Protein was quantified via Bradford assay. Samples were diluted to 4 μg lysate in 16 μL RIPA buffer and then 4 μL of Jess Sample Buffer. Samples were heated at 95° C. for 5 minutes. Samples were loaded onto 12-230 kDa Jess™ Separation Module, 8×25 capillary cartridges (SM-W004, Biotechne). Antibodies loaded were: Primary antibody for KAT2A (GCN5L2 (C26A10) Rabbit mAb (3305, CST)) and for KAT2B (PCAF (C14G9)) Rabbit mAb (3378, CST) at 1:1000 and Anti-Rabbit Detection Module for Jess™ (Cat No #DM-001, Biotechne). Signal was detected by chemiluminescence.
DC50 values were determined from percent reduction of protein as compared to the DMSO control.

T1 sequence (Q92831 whole entry): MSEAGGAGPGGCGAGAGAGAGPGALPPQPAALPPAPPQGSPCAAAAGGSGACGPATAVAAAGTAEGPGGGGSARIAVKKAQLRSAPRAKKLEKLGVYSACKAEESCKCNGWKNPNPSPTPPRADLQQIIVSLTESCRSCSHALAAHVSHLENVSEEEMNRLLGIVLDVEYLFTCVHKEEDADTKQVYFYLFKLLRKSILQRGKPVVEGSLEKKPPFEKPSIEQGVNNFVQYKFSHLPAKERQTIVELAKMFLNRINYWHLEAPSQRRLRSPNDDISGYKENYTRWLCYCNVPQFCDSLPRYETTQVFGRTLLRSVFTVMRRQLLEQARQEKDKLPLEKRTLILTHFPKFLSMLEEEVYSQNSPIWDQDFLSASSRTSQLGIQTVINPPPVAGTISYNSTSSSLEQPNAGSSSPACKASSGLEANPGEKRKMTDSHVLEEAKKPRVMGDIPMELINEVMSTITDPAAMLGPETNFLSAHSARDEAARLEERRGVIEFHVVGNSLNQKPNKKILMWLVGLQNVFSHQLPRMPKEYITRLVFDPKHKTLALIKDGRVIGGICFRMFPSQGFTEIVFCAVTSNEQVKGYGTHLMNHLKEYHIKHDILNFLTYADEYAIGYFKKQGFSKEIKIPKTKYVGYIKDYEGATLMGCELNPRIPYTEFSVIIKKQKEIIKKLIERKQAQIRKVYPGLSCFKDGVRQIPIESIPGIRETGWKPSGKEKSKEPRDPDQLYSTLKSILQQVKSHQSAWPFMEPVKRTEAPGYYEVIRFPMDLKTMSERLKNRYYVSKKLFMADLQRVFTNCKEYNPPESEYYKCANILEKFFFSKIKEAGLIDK
KAT2A, sequence (Q92830 whole entry): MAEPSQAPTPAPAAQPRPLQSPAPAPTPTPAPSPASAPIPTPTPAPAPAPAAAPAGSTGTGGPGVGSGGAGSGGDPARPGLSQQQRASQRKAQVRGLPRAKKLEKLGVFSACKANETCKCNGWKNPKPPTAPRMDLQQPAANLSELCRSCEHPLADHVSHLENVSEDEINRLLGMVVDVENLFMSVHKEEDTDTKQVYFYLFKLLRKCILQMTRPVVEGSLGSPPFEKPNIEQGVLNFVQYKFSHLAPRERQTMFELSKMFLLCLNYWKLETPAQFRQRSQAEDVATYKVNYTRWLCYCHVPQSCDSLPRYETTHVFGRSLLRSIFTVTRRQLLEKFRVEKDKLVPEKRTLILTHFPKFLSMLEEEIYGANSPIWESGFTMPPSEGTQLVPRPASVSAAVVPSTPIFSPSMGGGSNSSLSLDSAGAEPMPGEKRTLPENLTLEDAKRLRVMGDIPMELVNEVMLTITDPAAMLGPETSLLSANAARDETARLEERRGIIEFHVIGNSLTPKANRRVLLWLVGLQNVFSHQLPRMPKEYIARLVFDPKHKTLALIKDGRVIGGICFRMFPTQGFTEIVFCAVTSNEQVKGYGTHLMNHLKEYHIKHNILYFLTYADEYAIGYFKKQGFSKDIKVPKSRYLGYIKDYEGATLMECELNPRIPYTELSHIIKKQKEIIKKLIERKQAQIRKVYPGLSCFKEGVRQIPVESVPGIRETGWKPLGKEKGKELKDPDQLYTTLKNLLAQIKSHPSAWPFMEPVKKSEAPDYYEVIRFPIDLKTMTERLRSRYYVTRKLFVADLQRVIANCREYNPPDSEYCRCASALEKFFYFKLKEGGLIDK

Usually DC50 stands for the concentration giving 50% degradation. Take `CN1C[C@H](Nc2cnn(C)c(=O)c2Br)C[C@H](c2ccc(C(=O)N3CCC(CN4CCN(c5ccc6c(c5)CN(C5CCC(=O)NC5=O)C6=O)CC4)CC3)cc2)C1` (stereo partly drawn) [Compound 22, 3-(5-(4-((1-(4-((3R,5R)-5-((5-bromo-1-methyl-6-oxo-1,6-dihydropyridazin-4-yl)amino)-1-methylpiperidin-3-yl)benzoyl)piperidin-4-yl)methyl)piperazin-1-yl)-1-oxoisoindolin-2-yl)piperidine-2,6-dione]: in the test with epithelial GSEA, the “epithelial GSEA” value was “significant upregulation”. Further, the “histone acetylation (e.g., AcH3K9) levels” value in test [1] is on record as “reduce histone acetylation (e.g., AcH3K9) levels”. The “reduction of KAT2A in tumor” value at KAT2A was “significant reduction”. For the same molecule, the “reduction of KAT2B level” value at KAT2B [2] is recorded as “confirmed such reductions”. For the same molecule, at KAT2B [3] (24 h, MOLM-13, KAT2B, read-out: DC90 (the source's name)), the EC90 amounted to 3.6 nM. It took 0.43 nM to reach half-maximal degradation at KAT2B [3] (MOLM-13, KAT2B) (DC50). Besides, the KAT2B levels entry on KAT2B [3] (MOLM-13 cells, FIG. 2) is “potently reduce KAT2A and KAT2B levels”.
